US20240382461A1, “PHARMACEUTICAL COMPOSITION AND METHOD FOR PREVENTION AND TREATMENT OF HEARING LOSS” (PHARMAZZ, INC., priority 2023, published 2024)
“Also recorded” adds a separate entry of the source. Numbered stars: 1 amine (or outer) side, 2 acyl side, 3 side chain; on linkers, the order of the positions; unused ones are H or OH. Ends that are not written are not given here. Suc = O=C(CCC(=O)[*:2])[*:1]

Experiments:
[1] = system: noise-induced hearing loss; test: Noise-induced hearing loss in mice, intra-tympanic injection, auditory brainstem response (ABR); format: in vivo, mouse; settings: after noise exposure
Excerpt: (§1) The study aimed to determine whether Sovateltide (IRL-1620, PMZ-1620); an endothelin-B receptor agonist has otoprotective efficacy and that Sovateltide can ameliorate noise- or aminoglycoside-induced hearing loss in a mouse model system. Animals received either unilateral intra-tympanic Sovateltide at one of two dose concentrations or vehicle control injection. The study conducted unilateral auditory brainstem response (ABR) hearing tests at baseline and again at least 14 days after noise or aminoglycoside exposure as the primary measurement. A gross anatomical examination of treated middle ears was also conducted at necropsy.
(§2) FIG. 4 describes the study design where male and female mice were divided into seven groups, each with ten mice. Groups 1-3 were treated with 112-decibel noise to induce cochlear trauma, whereas groups 4-6 were treated with kanamycin+frusomide to induce aminoglycoside-induced cochlear trauma, and group 7 was kept as the control. In addition, Sovateltide in two different doses was administered in groups 1, 2, 4, and 5, while the vehicle, phosphate-buffered saline, was administered in groups 3, 6, and 7. The auditory brainstem response (ABR) test was performed at baseline and day 14 after noise or aminoglycoside exposure.
[Male & female C57Bl/6 mice used in this study were obtained from Charles River Labs. All study animals (n=69) underwent anesthesia via 87.5 mg/kg (Ketamine)/12.5 mg/kg (Xylazine) IP injection and baseline unilateral left ear ABR testing at 8, 16, and 32 kHz.
Study animals in Groups 1-6 (n=59) underwent cochlear trauma, either via noise (112 dB SPL, 8-16 kHz band, 2-hr duration) exposure while awake, with the goal of producing a moderate chronic hearing loss in all animals or a single injection of subcutaneous kanamycin and intraperitoneal furosemide on Day 0. The noise treatment typically produced moderate hearing losses in the range of 20-50 dB and scattered losses of outer hair cells but little, if any, loss of inner hair cells. […]

ETA receptors = biological target: T1, ETA receptors (Sus scrofa, UniProt Q29010); settings: cited from earlier work
T1 sequence (Q29010 21-427): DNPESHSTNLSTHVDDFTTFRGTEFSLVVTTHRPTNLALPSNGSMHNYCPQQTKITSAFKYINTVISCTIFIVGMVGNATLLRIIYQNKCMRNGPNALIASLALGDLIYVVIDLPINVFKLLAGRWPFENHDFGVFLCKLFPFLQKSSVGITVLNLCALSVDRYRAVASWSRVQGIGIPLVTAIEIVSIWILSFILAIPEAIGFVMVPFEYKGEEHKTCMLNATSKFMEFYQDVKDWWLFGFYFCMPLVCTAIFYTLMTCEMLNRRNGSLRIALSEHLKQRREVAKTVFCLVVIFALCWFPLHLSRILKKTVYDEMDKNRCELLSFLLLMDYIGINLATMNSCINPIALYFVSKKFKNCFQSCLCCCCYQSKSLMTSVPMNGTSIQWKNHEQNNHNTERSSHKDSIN

ETB receptors [2] = settings: cited from earlier work
[3] = system: adult mouse cochlear cells; test: Cultured adult mouse cochlear cells, JC 1 dye mitochondrial membrane potential, confocal imaging; format: cell-based; settings: 1 ng/ml for 7 days
Description: Inner ears comprising cochlear neuroepithelium from adult mice were dissected after anesthetizing with urethane 1.5 g/kg body weight and euthanizing with cervical dislocation. Inner ears were placed in cold saline, and the cochlea was dissected under the dissection microscope. The isolated cochlea was placed in a cold saline solution and chopped finely in a sterile condition inside a culture hood. Minced tissues were transferred to a 15 ml falcon tube and centrifuged at 1000 RPM for 2 min. The supernatant was discarded, and the pellet was submersed in 1× Trypsin EDTA solution (Cat No. R-001-100, GIBCO, MA) and triturated using a 1 ml pipette and cut-tip. The triturated tissue was incubated at 37° C. for 20 min. After 20 min, the digested tissues were vortexed gently and checked for proper digestion of the tissues. The digestion step was repeated by adding the same volume of 1× trypsin EDTA solution and incubating for 10 minutes. After a satisfactory level of digestion, the tissue solution was filtered with a sieve of pore size 40 μm to isolate cell suspension and remove undigested tissues. The cell suspension was collected in a 15 ml falcon tube, and 1 ml of serum-containing cell culture media was added and mixed properly to stop further digestion. The cochlear cell solution was centrifuged at 2000 RPM for 3 min at RT. The cell pellet was resuspended in 8 ml of 10% fetal bovine serum containing culture media and plated in 60 mm tissue culture-treated plastic plates (Alkali Scientific Inc. Fort Lauderdale, FL). The Neurobasal culture media supplemented with B-27 (Gibco, Waltham, MA) was used for culturing cochlear cells. […]
Sovateltide treatment—The cultured mouse cochlear cells were treated with 1 ng/ml sovateltide for 7 days in 2 different conditions—1) Serum-free media and 2) Serum containing media. […] Fluorescence confocal microscopy imaging was done on live cells. […]
JC-1 is a novel cationic carbocyanine dye that accumulates in mitochondria. The dye exists as a monomer at low concentrations and yields green fluorescence, similar to fluorescein. […]

[4] = system: aminoglycoside-induced hearing loss; test: Kanamycin/furosemide (aminoglycoside)-induced hearing loss in mice, intra-tympanic injection, ABR; format: in vivo, mouse; settings: after kanamycin/furosemide (K/F) exposure; 5 and 15 ug/kg intra-tympanic; 8, 16 and 32 kHz
Excerpt: as §1, §2
[Male & female C57Bl/6 mice used in this study were obtained from Charles River Labs. […]

ETB receptors [5] = test: Ki of sovateltide for ETB receptors (literature); format: binding; settings: ratio of Ki values
[6] = system: ETB and vascular endothelial growth factor (VEGF) in the cerebrovasculature; settings: administration on post-natal day 21; rat brain; cited from earlier work

selectivity for ETB over ETA receptors (ETB receptors [5]): ~120,000 times
Substance: synthetic analog of ET-1, ETB receptor agonist; Suc-Asp-Glu-Glu-Ala-Val-Tyr-Phe-Ala-His-Leu-Asp-Ile-Ile-Trp; CAS #142569-99-1 (Suc-DEEAVYFAHLDIIW) [Sovateltide, N-Succinyl-[Glu9, Ala11,15] endothelin 1]
ABR threshold shift at 8 kHz versus vehicle ([1]; 5 ug/kg intra-tympanic, p=0.2513): trend of lower threshold shift
ABR threshold shift at 8 kHz versus vehicle ([1]; 15 ug/kg intra-tympanic, p=0.0834): trend of lower threshold shift; also recorded: nearly significant effect
ABR threshold shift from baseline to Day 14 versus vehicle ([1]; 5 and 15 ug/kg intra-tympanic, 8, 16 and 32 kHz): not significantly different; also recorded: did not produce statistically reliable differences
Ki (ETA receptors): 1900 nM
Ki (ETB receptors [2]): 0.016 nM
mitochondrial protection (JC 1 mitochondrial membrane potential) versus saline control ([3]; serum containing media): reduction in compromised mitochondrial protection
mitochondrial protection (JC 1 mitochondrial membrane potential) versus saline control ([3]; serum-free media): more mitochondrial protection than control
mitochondrial protection (JC 1 mitochondrial membrane potential) versus saline control ([3]; serum-free media, listed as sovateltide): notable improvement in mitochondrial protection and improved cellular viability
ABR threshold shift from baseline to Day 14 versus vehicle [4]: not significantly different; also recorded: did not produce statistically reliable differences; also recorded: did not have any discernible impact
ETB and VEGF expression in the cerebrovasculature [6]: significant increase
